According to patent US20170239173A1, “TRANSDERMAL ABSORPTION ENHANCER AND TRANSDERMAL ABSORPTION ENHANCEMENT AID” (ASAHI KASEI KABUSHIKI KAISHA, priority 2014, published 2017):
“And” between values parts separate entries of the source, which are not always exact repeats. Equal values may be shown once.

Experiments:
[1] = partition coefficient between water and 1-octanol; cited from earlier work
[2] = Solubility / state of the active ingredient in the preparation (equimolar salt or enhancer); format: physicochemical; details: solubility of MZR in the equimolar salt of the basic compound a) with isostearic acid or linoleic acid
[3] = test system: hairless mouse skin (Laboskin)

Compound | Log P [1] | also measured
NCCCC[C@H](N[C@@H](CCc1ccccc1)C(=O)O)C(=O)N1CCC[C@H]1C(=O)O [lisinopril] | −2.9 and −3.0 | 
CCOC(=O)C1=C(COCCN)NC(C)=C(C(=O)OC)C1c1ccccc1Cl (stereo not drawn) [amlodipine] | 3 | 
CCOC(=O)[C@H](CCc1ccccc1)N[C@@H](C)C(=O)N1CCC[C@H]1C(=O)O [enalapril] | −0.1 | 
C[C@@](Cc1ccc(O)c(O)c1)(NN)C(=O)O [carbidopa] | −2.2 | 
Cc1c(OCC(F)(F)F)ccnc1C[S+]([O-])c1nc2ccccc2[nH]1 (stereo not drawn) [lansoprazole] | 2.8 | 
CC(=O)Nc1ccc(CC(=O)O)cc1 [actarit] | 0.4 | 
Cc1cccc(C)c1NC(=O)CC12CCCN1CCC2 [pilsicainide] | 2.7 | 
NS(=O)(=O)c1cc(C2(O)NC(=O)c3ccccc32)ccc1Cl (stereo not drawn) [chlorthalidone] | 0.9 | 
O=C(NC(Cc1cc(=O)[nH]c2ccccc12)C(=O)O)c1ccc(Cl)cc1 (stereo not drawn) [rebamipide] | 2.4 | 
CC(C)NCC(O)c1ccc(O)c(O)c1 (stereo not drawn) [isoprenaline] | −0.6 | 
CC(=O)SC[C@@H](C)C(=O)N1CCC[C@H]1C(=O)N[C@@H](Cc1ccccc1)C(=O)O [alacepril] | 2.1 | 
CNC(=C[N+](=O)[O-])NCCSCc1csc(CN(C)C)n1 [nizatidine] | 1.6 | 
Cc1cc2c(cc1S(N)(=O)=O)S(=O)(=O)CCC2 [meticrane] | 0.5 | 
Oc1cccc(O)c1 [resorcin] | 0.8 | 
Nc1cc(N2CCCCC2)nc(N)[n+]1[O-] [loniten] | 1.2 | 
CC(=O)N[C@H]1C(O)O[C@H](CO)[C@@H](O)[C@@H]1O (stereo partly drawn) [N-acetyl-D-glucosamine] | −1.7 | 
Nc1ncnc2[nH]cnc12 [Adenine] |  | MZR dissolution [2]: Insoluble
NS(=O)(=O)c1cc2c(cc1Cl)NC(C(Cl)Cl)NS2(=O)=O (stereo not drawn) [trichlormethiazide] | 0.6 | 
C[C@H]1C[C@@H]2[C@H]([C@@H](O)C[C@@]3(C)[C@H]2CC[C@]3(O)C(=O)CO)[C@@]2(C)C=CC(=O)C=C12 [methylprednisolone] | 1.9 | 
O=C1O[C@H]([C@@H](O)CO)C(O)=C1O [L-ascorbic acid] | −1.6 | 
N[C@@H](CS)C(=O)O [L-cysteine] | −2.5 | 
COc1cc2nc(N3CCN(C(=O)C4CCCO4)CC3)nc(N)c2cc1OC (stereo not drawn) [terazosin] | 1.4 | 
Nc1nc(N)c2nc(-c3ccccc3)c(N)nc2n1 [triamterene] | 1 | 
N[C@@H](CCC(=O)N[C@@H](CS)C(=O)NCC(=O)O)C(=O)O [glutathione] | −4.5 | 

Compound | Log P [1] | also measured
CN1CCN(CC(=O)N2c3ccccc3C(=O)Nc3cccnc32)CC1 [pirenzepine] | 0.1 | 
CC(C)NCC(O)c1ccc(NS(C)(=O)=O)cc1 (stereo not drawn) [sotalol] | 0.2 | 
CC(C)(C)NCC(O)CSc1nc(-c2ccc(C(N)=O)s2)cs1 (stereo not drawn) [arotinolol] | 2.3 | 
COc1ccc(CCNC[C@H](O)c2ccc(O)cc2)cc1OC [denopamine] | 1.8 | 
COC(=O)[C@@H]1CC2=CC(=O)CC[C@]2(C)[C@@]23O[C@@H]2C[C@@]2(C)[C@@H](CC[C@@]24CCC(=O)O4)[C@H]13 [eplerenone] | 1.4 | 
CCOC(=O)[C@H](CCc1ccccc1)N[C@H]1CS[C@H](c2cccs2)CN(CC(=O)O)C1=O [temocapril] | 1 | 
CCOC(=O)[C@H](CCc1ccccc1)N[C@@H](C)C(=O)N1[C@H](C(=O)O)C[C@H]2CCCC[C@@H]21 [trandolapril] | 2 | 
N[C@@H](Cc1c[nH]c2ccccc12)C(=O)O [tryptophan] | −1.1 | 
OC[C@H]1O[C@H](OC[C@H]2O[C@H](O[C@]3(CO)O[C@H](CO)[C@@H](O)[C@@H]3O)[C@H](O)[C@@H](O)[C@@H]2O)[C@H](O)[C@@H](O)[C@H]1O [raffinose] | −5.8 | 
Cc1[nH]c(=O)c(C#N)cc1-c1ccncc1 [milrinone] | 0 | 
Oc1ccc(O)cc1 [hydroquinone] | −0.6 | 
CC(O)CN(CC(C)O)CC(C)O (stereo not drawn) [TIPA] |  | MZR dissolution [2]: Insoluble
O=C(O)CCCC[C@@H]1SC[C@@H]2NC(=O)N[C@@H]21 [biotin] | 0.3 | 
C[N+](C)(C)CCO [choline] | (LogP = −0.4 | Transdermal penetrability of MZR [3]: Penetrated
COc1ccc(CCNCC(O)COc2cccc(C)c2)cc1OC (stereo not drawn) [bevantolol] | 3 | 
NC[C@H]1CC[C@H](C(=O)O)CC1 [tranexamic acid] | −2 | 
NNc1nncc2ccccc12 [hydralazine] | 0.7 | 
CCCCCCCCCCCCCC(=O)OC(C)C [IPM, isopropyl myristate] | 7.2 | 
O=P(O)(O)C(O)(Cc1cccnc1)P(=O)(O)O [risedronate] | −3.5 | 
CC(=O)O [Acetic acid] |  | Transdermal penetrability of MZR (hairless mouse) [3]: Not penetrated
N[C@@H](CO)C(=O)O [serine] | −3.1 | 
COP(=O)([O-])OC.Cn1cc[n+](C)c1 |  | MZR dissolution [2]: Insoluble
CCN(CC)CCNC(=O)c1ccc(N)cc1 [procainamide] | 0.9 | 
CCOC(=O)Oc1ccc(CCNC(=O)[C@H](CCSC)NC(C)=O)cc1OC(=O)OCC [docarpamine] | 2.9 | 

Compound | Log P [1] | also measured
NCCS(=O)(O)=S [thiotaurine] | −0.1 | 
NC(N)=Nc1nc(CSCCC(N)=NS(N)(=O)=O)cs1 [famotidine] | −0.6 | 
O=C(O)CCC(=O)O [Succinic acid] | (LogP = −0.6) | Transdermal penetrability of MZR (hairless mouse) [3]: Not penetrated
C[C@H](CS)C(=O)N1CCC[C@H]1C(=O)O [captopril] | 0.3 | 
c1ccc(CC2=NCCN2)cc1 [tolazoline] | 2.6 | 
CCOC(=O)[C@H](CCc1ccccc1)N[C@@H](C)C(=O)N1C(=O)N(C)C[C@H]1C(=O)O [imidapril] | −0.7 | 
Cc1c(C(C)C)c(=O)n(-c2ccccc2)n1C [isopropylantipyrine] | 1.7 | 
NC(=O)NC1NC(=O)NC1=O (stereo not drawn) [allantoin] | −2.2 | 
Cc1ccc(N(CC2=NCCN2)c2cccc(O)c2)cc1 [phentolamine] | 2.6 | 
COc1ccc(C(=O)N2CCN(c3ccc4c(c3)CCC(=O)N4)CC2)cc1OC [vesnarinone] | 2.1 | 
CC[C@H](C)[C@H](N)C(=O)O [L-Isoleucine] | (LogP = −3.69) | 
COc1cc(C)nc(-n2nc(C)cc2OC)n1 [epirizole] | 1.3 | 
CC(C)(S)[C@@H](N)C(=O)O [D-penicillamine] | −1.8 | 
CCn1cc[n+](C)c1.O=S(=O)([O-])C(F)(F)F |  | MZR dissolution [2]: Insoluble
COc1ccccc1O [guaiacol] | 1.3 | 
CC(O)(P(=O)(O)O)P(=O)(O)O [etidronic acid] | −3.7 | 
NCCc1ccc(O)c(O)c1 [dopamine] | −1 | 
Nc1cc(-c2ccncc2)c[nH]c1=O [amrinone] | −0.2 | 
Cc1oncc1C(=O)Nc1ccc(C(F)(F)F)cc1 [leflunomide] | 2.6 | 
CCOC(=O)[C@H](CCc1ccccc1)N[C@H]1CCCN2CCC[C@@H](C(=O)O)N2C1=O [cilazapril] | 0.6 | 
C[C@H](N)C(=O)O [alanine] | −3 | 
Clc1cccc(Cl)c1N=C1NCCN1 [clonidine] | 1.6 | 
N[C@@H](Cc1c[nH]cn1)C(=O)O [histidine] | −3.2 | 
CCCCc1ccc(O)cc1O [rucinol] | 2.4 | 

Compound | Log P [1] | also measured
O=C(O)c1cccnc1 [nicotinic acid] | 0.4 | 
CCOC(=O)[C@H](CCc1ccccc1)N[C@@H](C)C(=O)N1Cc2ccccc2C[C@H]1C(=O)O [quinapril] | 1.2 | 
O[C@@H]1CO[C@H]2[C@@H]1OC[C@@H]2O [isosorbide] | −1.4 | 
O=C(C[S+]([O-])Cc1ccco1)NC/C=C\COc1cc(CN2CCCCC2)ccn1 (stereo not drawn) [lafutidine] | 1.4 | 
O=c1cc(CO)occ1O [kojic acid] | −0.9 | 
CCCC(=O)N1CCCN(c2nc(N)c3cc(OC)c(OC)cc3n2)CC1 [bunazosin] | 2.2 | 
CCOC(=O)[C@H](CCc1ccccc1)N[C@@H](C)C(=O)N(CC(=O)O)C1Cc2ccccc2C1 [delapril] | 1.7 | 
C=CC[C@@H]1/C=C(\C)C[C@H](C)C[C@H](OC)[C@H]2O[C@@](O)(C(=O)C(=O)N3CCCC[C@H]3C(=O)O[C@H](/C(C)=C/[C@@H]3CC[C@@H](O)[C@H](OC)C3)[C@H](C)[C@@H](O)CC1=O)[C@H](C)C[C@@H]2OC [tacrolimus] | 2.7 | 
CC(C)(CO)[C@@H](O)C(=O)NCCC(=O)O [pantothenic acid] | −1.1 | 
N=C(N)NC(=O)Cc1c(Cl)cccc1Cl [guanfacine] | 2 | 
Nc1cc(N2CCCCC2)nc(N)[n+]1[O-] [minoxidil] | 1.2 | 
CCCCC/C=C\C/C=C\CCCCCCCC(=O)O [Linoleic acid] |  | Transdermal penetrability of MZR (hairless mouse) [3]: Penetrated
COc1ccccc1N1CCN(CCCNc2cc(=O)n(C)c(=O)n2C)CC1 [urapidil] | 1.5 | 
CCCCCCCC(=O)OCC(COC(=O)CCCCCCC)OC(=O)CCCCCCC [Tricaprylin, glycerin tricaprylate] | 8.9 | 
CCC[C@H](N[C@@H](C)C(=O)N1[C@H](C(=O)O)C[C@@H]2CCCC[C@@H]21)C(=O)OCC [perindopril] | 0.9 | 
C[N+](C)(C)C[C@H](O)CC(=O)[O-] [L-carnitine] | −0.2 | 
Cn1c(NCCN(CCO)CCCc2ccc([N+](=O)[O-])cc2)cc(=O)n(C)c1=O [nifekalant] | 1.1 | 
Cc1cccc(Nc2ccncc2S(=O)(=O)NC(=O)NC(C)C)c1 [torasemide] | 2.7 | 
O=C(O)CCCCCCCC(=O)O [azelaic acid] | 1.6 | 
N[C@H]1C(O)O[C@H](CO)[C@@H](O)[C@@H]1O (stereo partly drawn) [D-glucosamine] | −2.8 | 
CN(CC1(C)CCCO1)S(=O)(=O)c1ccc(Cl)c(S(N)(=O)=O)c1 (stereo not drawn) [mefruside] | 0.9 | 
OC[C@H]1O[C@@H](Oc2ccc(O)cc2)[C@H](O)[C@@H](O)[C@@H]1O [arbutin] | −0.6 | 
